Results on 13 compounds are retold here after ChEMBL document CHEMBL2021889, “Multipotent MAO and cholinesterase inhibitors for the treatment of Alzheimer's disease: synthesis, pharmacological analysis and molecular modeling of heterocyclic substituted alkyl and cycloalkyl propargyl amine” (Eur J Med Chem, 2012).

The target in assay [1] is T1, Amine oxidase [flavin-containing] A (Rattus norvegicus, UniProt P21396).
T1 sequence (P21396 whole entry): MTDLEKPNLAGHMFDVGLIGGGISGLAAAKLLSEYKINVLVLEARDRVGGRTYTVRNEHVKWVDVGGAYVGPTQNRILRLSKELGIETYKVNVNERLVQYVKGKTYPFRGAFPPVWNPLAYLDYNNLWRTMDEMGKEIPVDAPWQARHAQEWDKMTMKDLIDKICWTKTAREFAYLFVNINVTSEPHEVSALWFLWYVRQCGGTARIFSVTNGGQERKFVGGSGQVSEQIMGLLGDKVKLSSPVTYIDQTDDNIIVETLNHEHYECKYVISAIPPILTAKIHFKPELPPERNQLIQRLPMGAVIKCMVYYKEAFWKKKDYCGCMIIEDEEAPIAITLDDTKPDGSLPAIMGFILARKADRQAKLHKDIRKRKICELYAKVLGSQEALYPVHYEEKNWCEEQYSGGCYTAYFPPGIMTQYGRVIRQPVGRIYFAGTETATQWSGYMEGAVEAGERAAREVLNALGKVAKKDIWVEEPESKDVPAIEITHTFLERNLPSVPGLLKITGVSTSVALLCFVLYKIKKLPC
The experiment in a line: biochemical.
Description: Inhibition of mitochondrial MAO-A in rat liver homogenates using [14C]-(5-hydroxy-triptamine) as substrate preincubated for 30 mins by liquid scintillation counting

In assay [2] the target is T2, Amine oxidase [flavin-containing] B (Rattus norvegicus, UniProt P19643).
T2 sequence (P19643 whole entry): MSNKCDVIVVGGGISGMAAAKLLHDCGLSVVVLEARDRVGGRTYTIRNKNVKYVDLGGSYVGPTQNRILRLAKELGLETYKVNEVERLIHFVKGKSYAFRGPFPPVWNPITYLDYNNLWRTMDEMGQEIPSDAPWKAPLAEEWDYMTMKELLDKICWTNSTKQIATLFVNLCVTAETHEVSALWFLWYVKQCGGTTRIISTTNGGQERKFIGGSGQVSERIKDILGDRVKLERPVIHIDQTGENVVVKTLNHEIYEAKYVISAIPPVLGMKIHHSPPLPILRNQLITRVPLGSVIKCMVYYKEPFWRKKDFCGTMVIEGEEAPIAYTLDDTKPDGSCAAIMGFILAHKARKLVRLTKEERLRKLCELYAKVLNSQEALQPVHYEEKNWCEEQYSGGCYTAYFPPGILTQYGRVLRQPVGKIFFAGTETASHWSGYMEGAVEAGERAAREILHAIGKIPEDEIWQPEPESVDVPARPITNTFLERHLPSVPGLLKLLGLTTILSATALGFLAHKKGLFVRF
The experiment in a line: biochemical.
Description: Inhibition of mitochondrial MAO-B in rat liver homogenates using [14C]-phenylethylamine as substrate preincubated for 30 mins by liquid scintillation counting

Assay [3] addresses T3, Acetylcholinesterase (Electrophorus electricus, UniProt O42275).
Description: Inhibition of electric eel AChE using acetylthiocholine iodide as substrate after 15 mins by Ellman's method
The target in assay [4] is T4, Butyrylcholinesterase (Equus caballus, UniProt Q9N1N9).
Description: Inhibition of equine serum BChE using butyrylthiocholine iodide as substrate after 15 mins by Ellman's method
Assay [5] concerns the target T4, Butyrylcholinesterase. The experiment in a line: Competitive inhibition of equine serum BChE using acetylthiocholine as substrate by Lineweaver-Burk plot analysis.
In assay [6] the target is T3, Acetylcholinesterase. Kind of assay: Non-competitive inhibition of electric eel AChE using acetylthiocholine as substrate by Lineweaver-Burk plot analysis.
The target of assay [7] is Acetylcholinesterase (Homo sapiens, UniProt P22303). Kind of assay: Inhibition of human recombinant AChE using acetylthiocholine iodide as substrate by Ellman's method. In general terms: DTNB colorimetry detects thiols as they appear.
The target in another assay is Cholinesterase (Homo sapiens, UniProt P06276). Kind of assay: Inhibition of human serum BuChE using butyrylthiocholine iodide as substrate by Ellman's method.
Cholinesterase, sequence (P06276 whole entry): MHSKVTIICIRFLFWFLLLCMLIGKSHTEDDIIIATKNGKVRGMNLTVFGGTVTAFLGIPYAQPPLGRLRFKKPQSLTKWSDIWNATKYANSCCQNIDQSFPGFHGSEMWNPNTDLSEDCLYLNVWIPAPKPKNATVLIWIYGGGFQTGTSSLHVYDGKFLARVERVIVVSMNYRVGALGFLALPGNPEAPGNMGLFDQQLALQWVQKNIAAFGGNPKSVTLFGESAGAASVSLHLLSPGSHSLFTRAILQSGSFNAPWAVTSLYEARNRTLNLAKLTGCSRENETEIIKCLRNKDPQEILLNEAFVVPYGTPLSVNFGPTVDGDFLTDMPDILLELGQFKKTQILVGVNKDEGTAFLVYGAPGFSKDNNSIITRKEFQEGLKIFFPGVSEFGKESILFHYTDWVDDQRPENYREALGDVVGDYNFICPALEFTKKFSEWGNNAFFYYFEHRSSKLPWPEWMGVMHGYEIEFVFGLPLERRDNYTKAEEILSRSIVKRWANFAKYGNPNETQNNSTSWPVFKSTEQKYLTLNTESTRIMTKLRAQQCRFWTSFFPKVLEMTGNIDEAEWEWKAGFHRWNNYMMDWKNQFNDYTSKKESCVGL

T3 sequence (O42275 whole entry): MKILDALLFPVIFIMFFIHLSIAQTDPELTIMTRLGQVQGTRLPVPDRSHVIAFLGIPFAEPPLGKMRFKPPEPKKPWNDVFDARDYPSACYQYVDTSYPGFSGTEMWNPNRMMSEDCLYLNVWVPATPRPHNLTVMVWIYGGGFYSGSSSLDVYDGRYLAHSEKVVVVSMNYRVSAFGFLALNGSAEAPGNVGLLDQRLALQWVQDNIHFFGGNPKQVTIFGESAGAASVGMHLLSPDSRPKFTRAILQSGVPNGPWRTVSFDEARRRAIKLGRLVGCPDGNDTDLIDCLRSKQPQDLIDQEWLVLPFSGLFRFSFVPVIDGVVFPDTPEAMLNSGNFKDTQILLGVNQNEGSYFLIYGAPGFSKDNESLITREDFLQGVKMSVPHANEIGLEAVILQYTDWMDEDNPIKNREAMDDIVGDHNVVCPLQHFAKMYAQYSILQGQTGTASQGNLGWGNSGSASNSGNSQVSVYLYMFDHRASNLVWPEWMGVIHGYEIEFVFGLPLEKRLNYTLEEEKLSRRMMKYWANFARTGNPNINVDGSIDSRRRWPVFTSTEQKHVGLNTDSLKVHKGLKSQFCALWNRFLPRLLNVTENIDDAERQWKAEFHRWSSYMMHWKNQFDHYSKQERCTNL
T4 sequence (Q9N1N9 whole entry): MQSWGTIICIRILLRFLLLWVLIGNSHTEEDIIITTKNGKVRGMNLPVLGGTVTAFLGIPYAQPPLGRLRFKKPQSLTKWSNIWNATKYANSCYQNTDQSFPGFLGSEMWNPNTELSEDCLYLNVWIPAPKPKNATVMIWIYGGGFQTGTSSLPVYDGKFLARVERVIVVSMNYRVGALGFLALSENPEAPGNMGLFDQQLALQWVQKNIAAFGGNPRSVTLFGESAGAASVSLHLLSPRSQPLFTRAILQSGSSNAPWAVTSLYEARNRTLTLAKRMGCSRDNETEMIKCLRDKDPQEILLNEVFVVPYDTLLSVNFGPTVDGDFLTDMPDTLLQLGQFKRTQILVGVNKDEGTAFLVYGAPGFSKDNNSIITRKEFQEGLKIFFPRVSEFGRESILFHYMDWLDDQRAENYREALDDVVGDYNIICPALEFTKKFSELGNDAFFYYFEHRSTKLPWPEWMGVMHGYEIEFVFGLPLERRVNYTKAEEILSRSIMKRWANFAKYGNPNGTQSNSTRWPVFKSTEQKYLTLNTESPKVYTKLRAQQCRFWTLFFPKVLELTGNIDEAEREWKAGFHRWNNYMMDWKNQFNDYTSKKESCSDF
Acetylcholinesterase (Homo sapiens, UniProt P22303), sequence (P22303 whole entry): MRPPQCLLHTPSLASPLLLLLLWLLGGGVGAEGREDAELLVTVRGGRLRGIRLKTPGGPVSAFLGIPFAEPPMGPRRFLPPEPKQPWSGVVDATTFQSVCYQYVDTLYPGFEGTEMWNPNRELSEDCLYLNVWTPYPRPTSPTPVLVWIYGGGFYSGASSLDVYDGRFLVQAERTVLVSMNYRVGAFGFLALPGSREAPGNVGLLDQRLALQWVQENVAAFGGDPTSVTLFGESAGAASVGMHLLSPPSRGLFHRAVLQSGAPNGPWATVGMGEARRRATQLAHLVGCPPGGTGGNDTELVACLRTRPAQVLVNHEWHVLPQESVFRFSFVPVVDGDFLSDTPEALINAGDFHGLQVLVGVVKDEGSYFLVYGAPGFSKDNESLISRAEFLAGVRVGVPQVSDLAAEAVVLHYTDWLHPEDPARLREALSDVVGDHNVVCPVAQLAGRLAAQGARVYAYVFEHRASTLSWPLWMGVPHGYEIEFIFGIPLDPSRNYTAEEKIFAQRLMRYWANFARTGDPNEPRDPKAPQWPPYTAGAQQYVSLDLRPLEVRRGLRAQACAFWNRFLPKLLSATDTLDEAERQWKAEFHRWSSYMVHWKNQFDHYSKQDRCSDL

As to `C#CCN1CCc2nc3nc(N4CCCCC4)c(C#N)cc3c(N)c2C1`, the IC50 in assay [1] was 330 µM; in assay [2], 296 µM; at Acetylcholinesterase [3], 0.066 µM; on Butyrylcholinesterase [4], 10 µM.

Take `CNCc1cc2cc(OCc3ccccc3)ccc2n1C`: the IC50 in assay [1] was 99.3 µM; in assay [2], 44.1 µM; against Acetylcholinesterase [3] it was above 100 µM; against Butyrylcholinesterase [4] it was 11 µM.

As for `C#CCN1CCc2nc3ccccc3c(N)c2C1`, the IC50 came to 241 µM in assay [1], 617 µM in assay [2], 1.5 µM against Acetylcholinesterase [3] and 6.6 µM against Butyrylcholinesterase [4].

As to `CC#CCN(C)Cc1cc2cc(OCc3ccccc3)ccc2[nH]1`, the IC50 against Acetylcholinesterase [3] was above 100 µM; on Butyrylcholinesterase [4], 7 µM. Also, the Ki on Butyrylcholinesterase [5] was found to be 7.1 µM.

With `C#CCN(C)Cc1cc2cc(OCc3ccccc3)ccc2[nH]1`, the IC50 against Acetylcholinesterase [3] is above 100 µM; against Butyrylcholinesterase [4], 22 µM.

For `C=C=CCN(C)Cc1cc2cc(OCc3ccccc3)ccc2n1C`, the IC50 was above 100 µM against Acetylcholinesterase [3] and 14 µM on Butyrylcholinesterase [4].

For `C#CCN1CCc2nc3nc(OC)c(C#N)cc3c(N)c2C1`, the IC50 was 495 µM in assay [1], above 100 µM in assay [2], 0.54 µM on Acetylcholinesterase [3] and above 100 µM on Butyrylcholinesterase [4].

On to `CC#CCN(C)Cc1cc2cc(OCc3ccccc3)ccc2n1C`, for which the IC50 at Acetylcholinesterase [3] and at Butyrylcholinesterase [4] was above 100 µM in each case.

As to `C#CCNCc1cc2cc(OCc3ccccc3)ccc2[nH]1`, the IC50 was 0.022 µM in assay [2], above 100 µM on Acetylcholinesterase [3] and 43 µM against Butyrylcholinesterase [4].

Turning to `C#CCN1CCc2nc3nc(N4CCCC4)c(C#N)cc3c(N)c2C1`, the affinity at Acetylcholinesterase [6], expressed as Ki, was 0.065 µM. For the same compound, the IC50 is 618 µM in assay [1]; 0.65 µM at Acetylcholinesterase [7]; 357 µM in assay [2]; 0.025 µM against Acetylcholinesterase [3]; 82 µM against Cholinesterase; 27 µM against Butyrylcholinesterase [4].

Turning to `C#CCN1CCc2nc3nc(N(C)C)c(C#N)cc3c(N)c2C1`, the IC50 in assay [1] was 1000 µM; in assay [2] it was 281 µM; on Acetylcholinesterase [3] it was 0.029 µM; against Butyrylcholinesterase [4], above 100 µM.

Take `C#CCN(C)Cc1cc2cc(OCc3ccccc3)ccc2n1C`: the IC50 on Acetylcholinesterase [3] and against Butyrylcholinesterase [4] was above 100 µM throughout.

Consider `C#CCN1CCc2nc3nc(Cl)c(C#N)cc3c(N)c2C1`, for which the IC50 in assay [1] is 1050 µM; in assay [2] it was 660 µM; at Acetylcholinesterase [3], 1.4 µM; on Butyrylcholinesterase [4], above 100 µM.

The term IC50 denotes the midpoint of a concentration-inhibition curve. As usually defined, the Ki is the dissociation constant of the complex between target and ligand, obtained from inhibition or displacement. High values mean lower affinity, low ones higher affinity.
